According to patent US20200189989A1, “APPLICATION OF SYRINGIC ACID IN PROMOTING NITRIFICATION INHIBITION ACTIVITY OF DECANEDIOL” (Institute of Soil Science, Chinese Academy of Sciences, priority 2018, published 2020):

How the values were obtained:
Type in all cases: cell-based
[1] = test system: Nitrosomonas europaea (NBRC 14298); assay: Nitrification activity inhibition experiment, Nitrosomonas europaea (NO2- production, improved Griess method); settings: 2 hours, 25° C., dark
Description: Standard: a syringic acid standard was purchased from Sigma-Aldrich (St. Louis, Mo., USA), and the solid powder thereof was weighed and dissolved in DMSO. A 1,9-decanediol standard was purchased from WuXi AppTec, and the solid powder thereof was dissolved in DMSO while frozen over the dry ice (the 1,9-decanediol standard was a viscous liquid substance under normal temperature). Microbial strains: Nitrosomonas europaea (NBRC 14298) was purchased from Biological Resource Center, NITE, Japan. Microbial culture medium: a HEPES medium, which contained 2.5 g of (NH4)2SO4, 0.5 g of KH2PO4, 11.92 g of HEPES, 0.5 g of NaHCO3, 100 mg of MgSO4.7H2O, 5 mg of CaCl2.2H2O, and 75 mg of Fe-EDTA per 1 L liquid medium, at pH 7.8-8.0. Culture of microorganisms: Nitrosomonas europaea was inoculated in the HEPES medium and cultured at 30° C. and 200 rpm under a dark condition (aerobic), and the Nitrosomonas europaea enters a stable period 7-9 days after transfer each time. Nitrification activity inhibition experiment: The bacterial solution cultured for 7 days was collected, centrifuged at 5000 g for 20 min, and resuspended in a fresh and sterile HEPES medium until the OD600 reached about 1.0, with a concentration multiple of 40-50 times. Taken was a 1.5 mL sterile centrifuge tube, and it was sequentially added with 195 μL of sterile water, 5 μL of different concentrations of solutions of syringic acid and 1,9-decanediol in DMSO, 100 μL of the fresh and sterile HEPES medium, and 200 μL of a resuspended bacterial solution, and then cultured in a water bath at 25° C. under a dark condition for 2 hours. Then the mixed system was added with 20 μL of 0.1M Allylthiourea to terminate the nitrosification. […] of the reacted mixture was added into a 10 mL colorimetric tube, diluted to about 5 mL with deionized water, added with 1 mL of a sulfanilic acid solution, shaken well and then subjected to standing for 2-8 min, then added with 1 mL of a hydrochloric acid N-(1-naphthyl)-ethylenediamine solution, shaken well, diluted to 10 mL with water to obtain a constant volume. Deionized water was used as a reference, and the absorbances were determined at a wavelength of 540 nm. The reticle of NO2^− was made in the same manner to quantify the NO2^− generated in the sample system, and the sample inhibition rate was calculated by the following formula. This determination method was an improved Griess method, which could be referred to the national standard “determination of nitrite in the wet precipitation -N-(1-naphthyl)-1,2-diaminoethane spectrophotometry”. Nitrosification inhibition rate (%)=(1-the produced amount of NO2^− of the sample/the produced amount of NO2^− of a blank)×100%

[2] = test system: Nitrosomonas stercoris (NBRC 110753); assay: Nitrification activity inhibition experiment, Nitrosomonas stercoris (NO2- production, improved Griess method); settings: 2 hours, 25° C., dark
Description: Nitrification activity inhibition experiment: The bacterial solution cultured for 7 days was collected, centrifuged at 5000 g for 20 min, and resuspended in a fresh and sterile HEPES medium until the OD600 reached about 1.0, with a concentration multiple of 40-50 times. Taken was a 1.5 mL sterile centrifuge tube, and it was sequentially added with 195 μL of sterile water, 5 μL of different concentrations of solutions of syringic acid and 1,9-decanediol in DMSO, 100 μL of the fresh and sterile HEPES medium, and 200 μL of a resuspended bacterial solution, and then cultured in a water bath at 25° C. under a dark condition for 2 hours. Then the mixed system was added with 20 μL of 0.1M Allylthiourea to terminate the nitrosification. […] of the reacted mixture was added into a 10 mL colorimetric tube, diluted to about 5 mL with deionized water, added with 1 mL of a sulfanilic acid solution, shaken well and then subjected to standing for 2-8 min, then added with 1 mL of a hydrochloric acid N-(1-naphthyl)-ethylenediamine solution, shaken well, diluted to 10 mL with water to obtain a constant volume. Deionized water was used as a reference, and the absorbances were determined at a wavelength of 540 nm. The reticle of NO2^− was made in the same manner to quantify the NO2^− generated in the sample system, and the sample inhibition rate was calculated by the following formula. This determination method was an improved Griess method, which could be referred to the national standard “determination of nitrite in the wet precipitation -N-(1-naphthyl)-1,2-diaminoethane spectrophotometry”. Nitrosification inhibition rate (%)=(1-the produced amount of NO2^− of the sample/the produced amount of NO2^− of a blank)×100% The selection and formulation of the standard were the same as those of Embodiment 1. Microbial Strains: Nitrosomonas stercoris (NBRC 110753) was purchased from Biological Resource Center, NITE, Japan. The microbial culture medium and microbial culture were the same as those of Embodiment 1. Nitrification activity inhibition experiment: The bacterial solution of Nitrosomonas stercoris cultured for 7 days was collected, centrifuged at 5000 g for 20 min, and resuspended in a fresh and sterile HEPES medium until the OD600 reached about 1.0, with a concentration multiple of 40-50 times. Taken was a 1.5 mL sterile centrifuge tube, and it was sequentially added with 195 μL of sterile water, 5 μL of different concentrations of solutions of syringic acid and 1,9-decanediol in DMSO, 100 μL of the fresh and sterile HEPES medium, and 200 μL of a resuspended bacterial solution, and then cultured in a water bath at 25° C. under a dark condition for 2 hours. Then the mixed system was added with 20 μL of 0.1M Allylthiourea to terminate the nitrosification. […]

Nitrosomonas = assay: Nitrosification inhibition activity of syringic acid alone and as promoter of 1,9-decanediol (summary statement)
Description: The root exudates of 19 rice varieties are collected, concentrated, and determined for their nitrosification inhibition activities by using Nitrosomonas europaea. The varieties with significant effects are further screened out from them, to select a variety of which the root exudate has a significant inhibitory effect and a variety of which the root exudate has an effect opposite to the former, and then they are subjected to GC/MS identification for components thereof. By component comparison of the two varieties, syringic acid (4-Hydroxy 3,5-dimethoxybenzoic acid, with the molecular weight of 198.18) is identified in the root exudate of the rice variety Wuyunjing 7 having a significant inhibitory effect.

Structure (SMILES)	inhibition rate for the nitrosification process of Nitrosomonas europaea ([1]; 1,9-decanediol added alone)	nitrification inhibition rate ([1]; 1,9-decanediol plus syringic acid at 10 μ·mL^−1)	nitrification inhibition rate ([1]; 1,9-decanediol plus syringic acid at 100 μ·mL^−1)	nitrification inhibition rate ([1]; 1,9-decanediol plus syringic acid at 500 μ·mL^−1)	inhibition rate (nitrification inhibition effect on Nitrosomonas stercoris) ([2]; 1,9-decanediol plus 10 μg·mL^−1 of syringic acid)	inhibition rate (nitrification inhibition effect on Nitrosomonas stercoris) ([2]; 1,9-decanediol plus 100 μg·mL^−1 of syringic acid)	inhibition rate (nitrification inhibition effect on Nitrosomonas stercoris) ([2]; 1,9-decanediol plus 500 μg·mL^−1 of syringic acid)	inhibition rate (nitrification inhibition effect on Nitrosomonas stercoris) ([2]; 1,9-decanediol without syringic acid)	inhibitory activity to the Nitrosomonas (Nitrosomonas; syringic acid alone)	effect concentration for promoting the inhibition of 1,9-decanediol to the nitrosification activity of the Nitrosomonas (Nitrosomonas; syringic acid combined with 1,9-decanediol)
CC(O)CCCCCCCCO (stereo not shown) [1,9-decanediol]	41.2%	51.7%	61.1%	69.2%	60.5%	70.2%	89.9%	51.5%		
COc1cc(C(=O)O)cc(OC)c1O [syringic acid, 4-Hydroxy 3,5-dimethoxybenzoic acid]									no significant inhibitory activity	10 to 500 µg/mL
